Source: US6838478B2, “Amino acid derivatives and their use as thrombin inhibitors” (AstraZeneca AB, priority 1996, dated 2005)

Molecular target: T1, Human thrombin (Homo sapiens, UniProt P00734)
T1 construct: purchased Sigma Chem Co T 6769
Assay: Test A: determination of thrombin clotting time (TT)
Type: biochemical
Conditions: concentration of inhibitor that doubles the thrombin clotting time for human plasma
Protocol: Determination of Thrombin Clotting Time (TT)
Human thrombin (T 6769, Sigma Chem Co) in buffer solution, pH 7.4, 100 μI, and inhibitor solution, 100 μl, were incubated for one min. Pooled normal citrated human plasma, 100 μl, was then added and the clotting time measured in an automatic device (KC 10, Amelung).
The clotting time in seconds was plotted against the inhibitor concentration, and the IC50TT was determined by interpolation.
IC50TT is the concentration of inhibitor in the test that doubles the thrombin clotting time for human plasma.

| SMILES | IC50 |
| --- | --- |
| COc1cccc(C(CO)C(=O)N2CCCC2C(=O)NCc2ccc(C(N)=NC(=O)OCc3ccccc3)cc2)c1 (single isomer, unassigned) [Example 10, (S)- or (R)-3-Methoxyphenyl-CH(CH2OH)CO-Pro-Pab(Z)] | > 1000 nM |
| COc1cccc(C(CO)C(=O)N2CCCC2C(=O)NCc2ccc(C(N)=NO)cc2)c1 (single isomer, unassigned) [Example 13, (S)- or (R)-3-Methoxyphenyl-CH(CH2OH)—C(O)-Pro-Pab-OH] | > 1000 nM |
| CCC(=O)ON=C(N)c1ccc(CNC(=O)C2CCCN2C(=O)C(CO)c2cccc(OC)c2)cc1 (single isomer, unassigned) [Example 14, (S)- or (R)-3-Methoxyphenyl-CH(CH2OH)—C(O)-Pro-Pab-OC(O)Et] | > 1000 nM |

Continued, values first:

| IC50 | SMILES |
| --- | --- |
| > 1000 nM | COCC(C)(C(=O)N1CCCC1C(=O)NCc1ccc(C(N)=NC(=O)OCc2ccccc2)cc1)c1ccccc1 [Example 40, (R,S)-Ph-C(Me)(CH2OMe)-C(O)-Pro-Pab(Z)] |
| > 1000 nM | NC(=NO)c1ccc(CNC(=O)C2CCCN2C(=O)C(CO)c2ccccc2)cc1 [Example 8, (R,S)-Ph-CH(CH2OH)—C(O)-Pro-Pab-OH] |
| > 1000 nM | COc1cccc(C(CO)C(=O)N2CCC2C(=O)NCc2ccc(C(N)=NO)cc2)c1 (single isomer, unassigned) [Example 9, (R)- or (S)-3-Methoxyphenyl-CH(CH2OH)—C(O)-Aze-Pab-OH] |
